Data: patent US8193246B2, “Lipids and lipid assemblies comprising transfection enhancer elements” (Marina Biotech, Inc., priority 2006, dated 2012)

Columns and labels:
HeLa-Cells [1] = assay: In vitro transfection with liposomes encapsulating carboxyfluorescein, fluorescence microscopy (Example 5); format: cell-based; details: 0.5 mM CF/well, FIG. 7-11
Method: HeLa-Cells were obtained from DSMZ (German Collection of Micro Organism and Cell Cultures) and maintained in DMEM. Media were purchased from Gibco-Invitrogen and supplemented with 10% FCS at 37° C. under 5% CO2. The cells were plated at a density of 2×10^4 cells/ml and cultivated in 100 μl medium. After 16 h the media were replaced with Opti-MEM I (Gibco) containing liposomes (L1-L24) with a total amount of 50 to 200 ng Cy3-labelled oligonucleotides or 0.5 mM CF/well. Cell culture dishes were centrifuged for 1 h at 450 g at 37° C., followed by an incubation of 3 h hours at 37° C. under 5% CO2. The transfection mixture was replaced by the above mentioned medium and cells were incubated for further 24-48 h hours. Transfection efficiency and cellular distribution was determined after 4 or 24 hours by light and fluorescence microscopy using objectives with 10× or 40× magnification (Axionvert S 100, Carl Zeiss Inc.).

HeLa-Cells [2] = assay: In vitro transfection with liposomes encapsulating carboxyfluorescein (Example 11); format: cell-based; details: 0.05 mM CF/well, 4 hours, FIG. 17, 18
Method: HeLa-Cells were obtained from DSMZ (German Collection of Micro Organism and Cell Cultures) and maintained in DMEM. Media were purchased from Gibco-Invitrogen and supplemented with 10% FCS at 37° C. under 5% CO2. The cells were plated at a density of 4×10^4 cells/ml and cultivated in 100 μl medium. After 16 h the media were replaced with Opti-MEM I (Gibco) containing liposomes (L-46-L-49) with a total amount of 0.05 mM CF/well. Cell culture dishes were incubated for 4 hours at 37° C. under 5% CO2. Transfection efficiency and cellular distribution was determined after 4 hours by fluorescence microscopy with an exposure time of 5 seconds and using the 10/100 fold objective (Axionvert S 100, Carl Zeiss Inc.). Before imaging cells were washed several times (5×) with PBS pH7.4 and analysed directly (incubation time 20 to 30 sec.) in 50 μl PBS pH7.4. As control free CF (0.1 mM) in PBS was added to the cells.

“carboxyfluorescein [free carboxyfluorescein]” was tested, and the “fluorescence signal of carboxyfluorescein in cytosol or nucleus” value (HeLa-Cells [1]) was “do not show any fluorescence signals” and the “fluorescence signal of carboxyfluorescein” value (HeLa-Cells [2]) was “no fluorescence signal was observed”.
